Reference: patent US20080161419A1, “Prophylactic Antimigraine Agents” (priority 2004, published 2008)

Tests used:
[1] = system: migraine model of guinea pig; experiment: Preventive effect in guinea pig migraine model (leaked protein from dural blood vessel caused by 5-HT); type: in vivo; details: for leakage of the protein: 10 mg/kg or 30 mg/kg of oral administration; for amount of leaked protein (fluorescence intensity per mg dura): 3 mg/kg, intraperitoneal administration, 5-HT i.v.
Procedure: In this test system, migraine preventive effect was evaluated by measuring this leaked protein in the presence of a compound to be tested, and this was carried out by partially modifying the method described in Rachel A. Spokes and Vicki C. Middlefell, European Journal of Pharmacology (1995) 281, 75-79.
Hartley male guinea pig (250-350 g) was anesthetized by peritoneal administration (i.p.) of urethane (1.5 g/kg). By applying simple cannulation to a saphena, 50 mg/kg of a fluorescent protein (FITC-BSA) was intravenously administered (i.v.) and 5 minutes thereafter, physiological saline or […] of 5-HT was intravenously administered. By carrying out perfusion with physiological saline 15 minutes thereafter, blood was washed out. […] By detaching the skull, dura mater was took out and incubated at 37° C. for 16 hours in an Eppendorf tube in the presence of physiological saline of pH 11. Centrifugation was carried out, and the supernatant was dispensed into a plate. Fluorescence intensity was measured using a fluorescence plate reader (excitation wavelength 485 nm, […] 530 nm). By measuring dura mater weight, fluorescence intensity per mg dural protein was calculated.
Values of the fluorescence intensity measured at the time of the administration of each compound and at the time of no administration are shown in FIG. 1 to FIG. 4. […] The control indicates fluorescence intensity at the time of no addition of 5-HT, namely the reference value.

[2] = molecular target: T1, 5-HT1A receptor (Homo sapiens, UniProt P08908); experiment: Affinity for other receptors: 5-HT1A; type: binding
T1 sequence (P08908 1-422): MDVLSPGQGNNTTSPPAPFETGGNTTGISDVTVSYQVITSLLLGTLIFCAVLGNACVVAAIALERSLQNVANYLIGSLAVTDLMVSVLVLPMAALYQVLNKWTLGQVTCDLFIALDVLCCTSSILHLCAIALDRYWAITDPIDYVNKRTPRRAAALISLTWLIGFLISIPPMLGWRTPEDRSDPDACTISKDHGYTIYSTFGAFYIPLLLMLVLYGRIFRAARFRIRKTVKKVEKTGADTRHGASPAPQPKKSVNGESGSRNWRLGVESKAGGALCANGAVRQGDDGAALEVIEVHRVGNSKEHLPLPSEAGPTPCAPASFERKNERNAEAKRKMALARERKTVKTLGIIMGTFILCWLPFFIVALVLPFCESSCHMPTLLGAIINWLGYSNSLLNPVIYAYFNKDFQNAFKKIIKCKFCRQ
From the text: (§1) Affinity of the compound of Preparation 3 for 5-HT1A, 5-HT1B, 5-HT2A, 5-HT2C, 5-HT3, 5-HT4, 5-HT6, α1, M1 and D2 receptors was verified using conventionally known techniques (Journal of Neurochemistry (1986) 47, 529-540; Molecular Pharmacology (1982) 21, 301-314; European Journal of Pharmacology (1985) 106, 539-546; Journal of Pharmacology Experimental Therapy (1992) 263, 1127-1132; British Journal of Pharmacology (1993) 109, 618-624; Molecular Pharmacology (1993) 43, 320-327; Molecular Pharmacology (1989) 35, 324-330; Cellular Molecular Neurobiology (1988) 8, 181-191; European Journal of Pharmacology (1988) 173, 177-182).

[3] = molecular target: 5-HT1B receptor (Homo sapiens, UniProt P28222); experiment: Affinity for other receptors: 5-HT1B; type: binding
Chain of 5-HT1B receptor (P28222 whole entry): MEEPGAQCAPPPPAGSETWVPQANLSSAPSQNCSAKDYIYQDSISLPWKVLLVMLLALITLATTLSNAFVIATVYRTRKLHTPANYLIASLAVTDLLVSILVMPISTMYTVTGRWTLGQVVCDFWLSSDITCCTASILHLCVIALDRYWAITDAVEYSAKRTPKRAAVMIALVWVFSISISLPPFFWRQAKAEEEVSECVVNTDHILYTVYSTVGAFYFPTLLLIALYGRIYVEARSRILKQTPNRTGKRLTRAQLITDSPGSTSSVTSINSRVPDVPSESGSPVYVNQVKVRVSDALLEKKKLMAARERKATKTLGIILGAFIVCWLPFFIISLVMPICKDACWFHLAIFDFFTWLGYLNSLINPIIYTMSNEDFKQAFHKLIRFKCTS
From the text: as §1

[4] = molecular target: D2 receptor (Homo sapiens, UniProt P14416); experiment: Affinity for other receptors: D2; type: binding
Chain of D2 receptor (P14416 whole entry): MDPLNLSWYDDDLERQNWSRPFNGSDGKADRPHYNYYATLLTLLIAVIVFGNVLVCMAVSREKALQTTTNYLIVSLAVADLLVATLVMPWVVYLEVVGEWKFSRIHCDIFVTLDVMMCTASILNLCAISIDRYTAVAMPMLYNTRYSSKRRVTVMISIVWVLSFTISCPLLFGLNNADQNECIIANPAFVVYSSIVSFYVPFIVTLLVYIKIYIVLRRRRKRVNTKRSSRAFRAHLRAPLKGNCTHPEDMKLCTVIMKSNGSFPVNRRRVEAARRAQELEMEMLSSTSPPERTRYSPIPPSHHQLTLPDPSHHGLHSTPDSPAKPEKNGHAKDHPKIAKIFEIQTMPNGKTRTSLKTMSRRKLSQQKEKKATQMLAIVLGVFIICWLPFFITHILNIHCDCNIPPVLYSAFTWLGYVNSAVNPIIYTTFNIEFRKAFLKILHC
From the text: as §1

[5] = molecular target: T2, human 5-HT2B receptor (Homo sapiens, UniProt P41595); experiment: Binding test of 5-HT2B receptor; details: [3H]Mesulergine, human 5-HT2B receptor expressing HEK293-EBNA cell membrane
T2 construct: expressed in transfected cells; host or cells: HEK293-EBNA
T2 sequence (P41595 whole entry): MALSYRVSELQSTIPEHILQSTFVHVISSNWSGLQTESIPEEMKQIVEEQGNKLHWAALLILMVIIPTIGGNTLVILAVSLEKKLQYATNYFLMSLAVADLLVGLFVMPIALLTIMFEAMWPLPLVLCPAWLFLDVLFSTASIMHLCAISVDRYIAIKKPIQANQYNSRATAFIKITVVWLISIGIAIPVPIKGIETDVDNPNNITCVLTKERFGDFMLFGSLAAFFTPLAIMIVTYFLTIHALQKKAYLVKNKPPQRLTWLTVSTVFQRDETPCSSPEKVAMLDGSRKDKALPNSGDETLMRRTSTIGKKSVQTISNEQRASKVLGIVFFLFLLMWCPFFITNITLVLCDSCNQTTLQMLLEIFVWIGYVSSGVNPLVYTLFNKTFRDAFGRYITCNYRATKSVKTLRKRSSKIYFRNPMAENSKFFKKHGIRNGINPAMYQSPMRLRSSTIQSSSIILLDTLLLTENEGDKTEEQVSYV
Procedure: HEK293-ENBA cell was used as the gene transferring cell.
Cultured HEK293-EBNA cells expressing human 5-HT2B receptor were washed with PBS(−). The cells were scraped in the presence of PBS(−), and the cells were recovered by centrifugation (1,000 rpm, 10 min, 4° C.). They were homogenized using Polytron (PTA 10-TS) in the presence of 5 mM Tris-HCl (pH 7.4) buffer and centrifuged (40,000×g, 10 min, 4° C.). They were suspended using a homogenizer in the presence of 50 mM Tris-HCl (pH 7.4) buffer. They were subjected to centrifugation (40,000×g, 10 min. 4° C.), suspended in 50 mM Tris-HCl (H 7.4) and stored at −80° C.
A total volume of 500 μl containing 50 mM Tris-HCl-4 mM CaCl2 (pH 7.4) buffer, the human 5-HT2B receptor expressing HEK293-EBNA cell membrane preparation and a radio ligand [^3H]Mesulergine (3.1 TBq/mmol) was incubated at 25° C. for 1 hour. The compound was dissolved in 100%1/DMSO and diluted to respective concentrations. Nonspecific binding was defined as the binding quantity in the presence of 1 μM ritanserin, and the result of subtracting the nonspecific binding quantity from the total binding quantity was defined as the specific binding quantity. […] The glass filter was soaked in 5 ml of a liquid scintillator (Aquasol-2) and the radioactivity was measured using a liquid scintillation counter. […]

[6] = molecular target: 5-HT4 receptor (Homo sapiens, UniProt Q13639); experiment: Affinity for other receptors: 5-HT4; type: binding
Chain of 5-HT4 receptor (Q13639 whole entry): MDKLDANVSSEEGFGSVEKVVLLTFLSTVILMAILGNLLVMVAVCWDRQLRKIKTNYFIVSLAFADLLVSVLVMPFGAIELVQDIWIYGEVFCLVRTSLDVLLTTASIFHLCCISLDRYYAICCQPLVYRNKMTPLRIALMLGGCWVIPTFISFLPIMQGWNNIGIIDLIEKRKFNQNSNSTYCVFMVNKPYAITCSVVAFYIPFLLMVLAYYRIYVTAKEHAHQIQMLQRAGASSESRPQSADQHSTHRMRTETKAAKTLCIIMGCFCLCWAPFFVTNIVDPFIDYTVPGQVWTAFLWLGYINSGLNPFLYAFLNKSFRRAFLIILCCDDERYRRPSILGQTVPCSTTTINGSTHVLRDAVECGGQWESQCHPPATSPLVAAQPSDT
From the text: as §1

[7] = molecular target: 5-HT6 receptor (Homo sapiens, UniProt P50406); experiment: Affinity for other receptors: 5-HT6; type: binding
Chain of 5-HT6 receptor (P50406 whole entry): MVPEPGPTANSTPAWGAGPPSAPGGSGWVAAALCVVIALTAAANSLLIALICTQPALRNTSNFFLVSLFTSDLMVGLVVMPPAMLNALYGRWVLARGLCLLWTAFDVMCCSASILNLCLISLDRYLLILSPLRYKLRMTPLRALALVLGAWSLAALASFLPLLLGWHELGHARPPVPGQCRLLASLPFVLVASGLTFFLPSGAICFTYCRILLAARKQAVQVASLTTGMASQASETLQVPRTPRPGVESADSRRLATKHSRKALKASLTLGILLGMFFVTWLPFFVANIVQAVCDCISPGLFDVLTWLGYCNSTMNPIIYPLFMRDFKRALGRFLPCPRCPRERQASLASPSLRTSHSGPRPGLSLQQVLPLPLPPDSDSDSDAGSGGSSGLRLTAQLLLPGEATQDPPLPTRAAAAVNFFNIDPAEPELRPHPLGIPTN
From the text: as §1

[8] = molecular target: 5-HT2A receptor (Homo sapiens, UniProt P28223); experiment: Affinity for other receptors: 5-HT2A; type: binding
Chain of 5-HT2A receptor (P28223 whole entry): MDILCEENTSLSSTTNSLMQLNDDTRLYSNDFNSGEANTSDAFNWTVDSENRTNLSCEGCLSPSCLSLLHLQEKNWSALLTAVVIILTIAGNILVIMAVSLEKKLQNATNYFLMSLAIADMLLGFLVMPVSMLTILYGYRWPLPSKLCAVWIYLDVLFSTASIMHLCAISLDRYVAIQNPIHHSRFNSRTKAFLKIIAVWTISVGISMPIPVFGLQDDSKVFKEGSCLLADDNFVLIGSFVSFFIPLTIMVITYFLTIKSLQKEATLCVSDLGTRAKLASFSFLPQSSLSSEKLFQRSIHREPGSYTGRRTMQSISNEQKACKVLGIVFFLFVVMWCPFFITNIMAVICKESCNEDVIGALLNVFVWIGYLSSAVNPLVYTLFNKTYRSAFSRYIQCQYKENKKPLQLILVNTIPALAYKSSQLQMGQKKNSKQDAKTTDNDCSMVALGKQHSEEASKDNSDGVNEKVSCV
From the text: as §1

[9] = molecular target: T3, M1 receptor (Homo sapiens, UniProt P11229); experiment: Affinity for other receptors: M1; type: binding
T3 sequence (P11229 1-460): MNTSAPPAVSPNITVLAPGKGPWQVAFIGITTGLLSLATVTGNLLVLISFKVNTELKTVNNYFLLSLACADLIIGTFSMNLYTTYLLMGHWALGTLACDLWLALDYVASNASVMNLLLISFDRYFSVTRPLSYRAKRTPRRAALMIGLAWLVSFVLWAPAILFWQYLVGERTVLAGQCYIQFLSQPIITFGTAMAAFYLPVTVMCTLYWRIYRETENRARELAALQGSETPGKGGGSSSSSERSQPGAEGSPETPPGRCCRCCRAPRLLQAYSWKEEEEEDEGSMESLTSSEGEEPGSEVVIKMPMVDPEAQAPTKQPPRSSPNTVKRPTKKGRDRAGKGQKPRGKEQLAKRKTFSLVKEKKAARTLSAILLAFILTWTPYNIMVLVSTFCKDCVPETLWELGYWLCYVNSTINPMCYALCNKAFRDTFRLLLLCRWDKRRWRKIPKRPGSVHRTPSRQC
From the text: as §1

[10] = molecular target: α1 receptor; experiment: Affinity for other receptors: α1; type: binding
From the text: as §1

[11] = molecular target: T4, human 5-HT7 receptor (Homo sapiens, UniProt P34969); experiment: Binding test of 5-HT7 receptor; details: [3H]5-HT, human 5-HT7 receptor expressing CHO cell membrane
T4 construct: expressed in transfected cells; host or cells: CHO
T4 sequence (P34969 whole entry): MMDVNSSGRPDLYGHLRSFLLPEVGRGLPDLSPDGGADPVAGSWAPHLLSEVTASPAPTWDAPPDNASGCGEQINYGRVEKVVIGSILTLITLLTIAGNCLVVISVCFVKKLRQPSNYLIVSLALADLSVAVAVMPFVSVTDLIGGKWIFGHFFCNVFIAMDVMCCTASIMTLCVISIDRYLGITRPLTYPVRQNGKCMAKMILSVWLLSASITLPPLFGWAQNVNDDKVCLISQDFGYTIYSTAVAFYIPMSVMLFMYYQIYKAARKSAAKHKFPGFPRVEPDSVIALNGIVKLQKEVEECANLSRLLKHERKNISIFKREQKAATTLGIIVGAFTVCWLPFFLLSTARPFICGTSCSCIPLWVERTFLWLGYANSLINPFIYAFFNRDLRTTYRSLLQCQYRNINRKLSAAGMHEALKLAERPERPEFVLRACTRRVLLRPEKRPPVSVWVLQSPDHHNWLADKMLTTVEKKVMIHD
Procedure: Cultured CHO cells expressing human 5-HT7 receptor were washed with PBS(−). The cells were scraped in the presence of PBS(−), and the cells were recovered by centrifugation (1,000 rpm, 10 min, 4° C.). They were homogenized using Polytron (TA 10-TS) in the presence of 5 mM Tris-HCl (pH 7.4) buffer and centrifuged (40,000×g, 10 min, 4° C.). They were suspended using a homogenizer in the presence of 50 mM Tris-HCl (pH 7.4) buffer. They were subjected to centrifugation (40,000×g, 10 min, 4° C.), suspended in 50 mM Tris-HCl (pH 7.4) and stored at −80° C.
A total volume of 500 μl containing 50 mM Tris-HCl-4 mM CaCl2 (pH 7.4) buffer, the human 5-HT7 receptor expressing CHO cell membrane preparation and a radio ligand [^3H]5-HT (3.40 TBq/mmol) was incubated at 25° C. for 1 hour. The compound was dissolved in 100% DMSO and diluted to respective concentrations. Nonspecific binding was defined as the binding quantity in the presence of 10 μM metergoline, and the result of subtracting the nonspecific binding quantity from the total binding quantity was defined as the specific binding quantity. This was mixed with 4 ml of 50 mM Tris-HCl buffer (pH 7.4) and filtered under a reduced pressure using a GF/B glass filter, and the filter was washed (4 ml×3) with the same buffer. The glass filter was soaked in 5 ml of a liquid scintillator (Aquasol-2) and the radioactivity was measured using a liquid scintillation counter. Concentration of the compound which inhibits 50% of the receptor binding, IC50 value, was obtained by nonlinear regression analysis using SAS (ver. 6.11), and the Ki value which represents its affinity for the receptor was calculated using the formula of Cheng & Prussoff; Ki=IC50/(1+[L]/[Kd]) ([L]: ligand concentration, [Kd]: dissociation constant).

[12] = molecular target: T5, 5-HT3 receptor (Homo sapiens, UniProt P46098); experiment: Affinity for other receptors: 5-HT3; type: binding
T5 sequence (P46098 24-478): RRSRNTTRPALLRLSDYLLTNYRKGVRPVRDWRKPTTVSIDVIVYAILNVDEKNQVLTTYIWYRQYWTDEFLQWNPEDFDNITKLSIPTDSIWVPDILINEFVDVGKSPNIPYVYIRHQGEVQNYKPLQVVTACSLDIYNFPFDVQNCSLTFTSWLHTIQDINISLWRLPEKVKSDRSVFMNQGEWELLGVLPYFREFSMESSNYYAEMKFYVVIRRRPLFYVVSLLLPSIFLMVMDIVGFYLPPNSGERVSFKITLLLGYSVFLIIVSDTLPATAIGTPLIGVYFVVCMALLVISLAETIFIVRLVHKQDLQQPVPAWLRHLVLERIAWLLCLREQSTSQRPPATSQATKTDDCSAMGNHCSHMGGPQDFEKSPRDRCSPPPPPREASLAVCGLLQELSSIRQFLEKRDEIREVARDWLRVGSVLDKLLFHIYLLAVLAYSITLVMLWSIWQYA
From the text: as §1

[13] = molecular target: T6, 5-HT2C receptor (Homo sapiens, UniProt P28335); experiment: Affinity for other receptors: 5-HT2C; type: binding
T6 sequence (P28335 33-458): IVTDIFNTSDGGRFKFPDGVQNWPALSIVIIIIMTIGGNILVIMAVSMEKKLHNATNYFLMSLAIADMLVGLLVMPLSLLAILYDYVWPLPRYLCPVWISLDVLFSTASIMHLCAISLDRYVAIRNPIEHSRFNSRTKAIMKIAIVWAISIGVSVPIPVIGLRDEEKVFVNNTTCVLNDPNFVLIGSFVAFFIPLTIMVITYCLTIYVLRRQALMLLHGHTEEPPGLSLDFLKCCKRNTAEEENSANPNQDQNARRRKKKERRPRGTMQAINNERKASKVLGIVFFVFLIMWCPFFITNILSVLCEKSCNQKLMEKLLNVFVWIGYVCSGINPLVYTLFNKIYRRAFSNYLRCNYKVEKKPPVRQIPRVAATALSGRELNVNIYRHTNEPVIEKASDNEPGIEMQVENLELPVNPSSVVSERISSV
From the text: as §1

[14] = system: 5-HT2B receptor; details: against 5-HT1A, 5-HT1B, 5-HT2A, 5-HT2C, 5-HT3, 5-HT6, 5-HT7, α1, M1 and D2 receptors; cited from earlier work

For CC1(O)c2cc(C(=O)N=C(N)N)ccc2-c2c(F)cccc21.Cl (single isomer, unassigned) [Preparation 78b], the “leakage of the protein” value [1] was “almost completely suppressed leakage of the protein”.
For Cl.NC(N)=NC(=O)c1ccc2c(c1)C(O)c1ccccc1-2 (centres unmarked) [Preparation 3, N-(diaminomethylene)-9-hydroxy-9H-fluorene-2-carboxamide hydrochloride], the IC50 [2] was no less than 1 µM, the IC50 [3] was no less than 1 µM and the IC50 [4] was no less than 1 µM. For the same molecule, the “amount of leaked protein (fluorescence intensity per mg dura)” value [1] was “almost completely suppressed the amount of leaked protein”, the Ki [5] was 0.0018 µM and the IC50 [6] was no less than 1 µM. The IC50 [7] was no less than 1 µM, the IC50 [8] was no less than 1 µM and the IC50 [9] was no less than 1 µM. For the same molecule, the IC50 [10] was no less than 1 µM, the Ki [11] was 0.0176 µM and the IC50 [12] was no less than 1 µM. For the same molecule, the IC50 [13] was no less than 1 µM.
In the case of CCC1(OC)c2ccccc2-c2ccc(C(=O)N=C(N)N)cc21.Cl (racemic) [Preparation 72], the “leakage of the protein” value [1] is reported as “almost completely suppressed leakage of the protein”.
For Cl.NC(N)=NC(=O)c1ccc2c(c1)C1(CCCO1)c1ccccc1-2 (single isomer, unassigned) [Preparation 60b], the “leakage of the protein” value [1] was “almost completely suppressed leakage of the protein”.
For NC(N)=NC(=O)c1ccc2c(c1)C(Cl)c1ccccc1-2 (centres unmarked) [Preparation 4, 9-chloro-N-(diaminomethylene)-9H-fluorene-2-carboxamide], the Ki [11] was 0.0004 to 0.31 µM.
With Cl.NC(N)=NC(=O)c1ccc2c(c1)C1(CCCO1)c1ccccc1-2 (racemic) [Preparation 60] the “leakage of the protein” value [1] was “almost completely suppressed leakage of the protein”.
For COC1(C)c2ccccc2-c2ccc(C(=O)N=C(N)N)cc21.Cl (racemic) [Preparation 71], the “leakage of the protein” value [1] was “almost completely suppressed leakage of the protein”.
With Cl.NC(N)=NC(=O)c1ccc2c(c1)C1(CCCO1)c1ccccc1-2 (single isomer, unassigned) [Preparation 60a] the “leakage of the protein” value [1] was “almost completely suppressed leakage of the protein”.
For CC(C)c1cc(-c2ccc(F)c3ccccc23)nc(N)n1 [RS-127445, 2-amino-4-(4-fluoronaphth-1-yl)-6-isopropylpyrimidine, reference compound], the “amount of leaked protein (fluorescence intensity per mg dura)” value [1] was “showed an effect to reduce amount of the leaked protein”, the “amount of leaked protein versus reference value” ([1]; dose increased from 3 mg/kg to 10 mg/kg, intraperitoneal) was “did Dot reduced to the reference value” and the “minimum amount showing maximum drug effect in this model” value ([1]; intraperitoneal) was 3 mg/kg. For the same molecule, the 5-HT2B receptor selectivity [14] was 1000 times.
For COC1(C)c2cc(C(=O)N=C(N)N)ccc2-c2c(F)cccc21.Cl (racemic) [Preparation 87], the “leakage of the protein” value [1] was “almost completely suppressed leakage of the protein”.
NC(N)=NC(=O)c1ccc2c(c1)C(=NO)c1c(CO)cccc1-2 [Preparation 7, (9EZ)-N-(diaminomethylene)-9-hydroxyimino-8-hydroxymethyl-9H-fluorene-2-carboxamide] showed a Ki [11] of 0.0004 to 0.31 µM.
In the case of CC1CCN(CC[C@H]2CCCN2S(=O)(=O)c2cccc(O)c2)CC1 [SB-269970, (R)-3-(2-(2-(4-methylpiperidin-1-yl)ethyl)pyrrolidine-1-sulfonyl)phenol, reference compound], the “amount of leaked protein versus reference value” ([1]; dose increased from 3 mg/kg to 30 mg/kg, intraperitoneal) is reported as “did not reduced the amount of leaked protein to the reference value”, the “amount of leaked protein” value ([1]; from 10 mg/kg, intraperitoneal) is reported as “showed the effect” and the “minimum amount showing maximum drug effect in this model” value ([1]; intraperitoneal) is reported as 10 mg/kg.
